Laboratory results as given in US7511145B2 (Genelabs Technologies, Inc., priority 2003, dated 2009).

Target: T1, HCV-NS5b (Hepatitis C virus genotype 1b, UniProt Q9WMX2)
T1 construct: (His)6 (C); made in house; host or cells: XL-1 cells (E. coli), IPTG-inducible plasmid, nickel-NTA purification
Test: HCV-NS5b enzyme assay (incorporation of radiolabeled UTP)
Type: biochemical
Conditions: for inhibition at 100 µM: read-out: % inh@100, enzyme inhibition at compound concentration of 100 uM
In short: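 His6-tagged NS5b lacking the C-terminal 21 residues, expressed in XL-1 and Ni-NTA purified. Reaction at pH 7.5 with 5 mM MgCl2, 10 μM each NTP including [3H]-UTP and biotinylated HCV heteropolymeric template, 2 h at 37° C; SPA read-out; % inhibition at 100 and 33 uM versus no-compound control, background subtracted.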

[1] = enzyme inhibition at compound concentration of 33 uM

Structure (SMILES)	inhibition at 33 µM [1] [%]	inhibition at 100 µM [%]	% inh@33 [1] [%]	% inh@100 (enzyme inhibition at compound concentration of 100 uM) [%]
CC(C)C[C@H](NC(=O)c1ccc2c(c1)nc(-c1ccc3nc(-c4ccccc4)cnc3c1)n2C1CCCCC1)C(=O)O [Compound 513, 2-{[1-Cyclohexyl-2-(2-phenyl-quinoxalin-6-yl)-1H-benzoimidazole-5-carbonyl]-amino}-4-methyl-pentanoic acid]	93.2	95.9	–	–
O=C(c1ccc2c(c1)nc(-c1cc3ccc(-c4ccccc4-c4ccc(Cl)cc4)nc3cc1F)n2C1CCCCC1)N1CCC(O)CC1 [Compound 514, {2-[2-(4′-Chloro-biphen-2-yl]-7-fluoro-quinolin-6-yl]-1-cyclohexyl-1H-benzoimidazol-5-yl}-(4-hydroxy-piperidin-1-yl)-methanone]	89.6	91.9	–	–
CSCC[C@H](NC(=O)c1ccc2c(c1)nc(-c1ccc3nc(-c4ccccc4)cnc3c1)n2C1CCCCC1)C(=O)O [Compound 515, 2-{[1-Cyclohexyl-2-(2-phenyl-quinoxalin-6-yl)-1H-benzoimidazole-5-carbonyl]-amino}-4-methylsulfanyl-butyric acid]	81.9	88.3	–	–
O=C(N[C@@H](Cc1c[nH]c2ccc(O)cc12)C(=O)O)c1ccc2c(c1)nc(-c1ccc3cc(-c4ccccc4)cnc3c1)n2C1CCCCC1 [Compound 516, 2-{[1-cyclohexyl-2-(3-phenyl-quinolin-7-yl)-1H-benzoimidazole-5-carbonyl]-amino}-3-(5-hydroxy-1H-indol-3-yl)-propionic acid]	99.3	100	–	–
CC(C)[C@H](NC(=O)c1ccc2c(c1)nc(-c1ccc3nc(-c4ccccc4)cnc3c1)n2C1CCCCC1)C(=O)O [Compound 517, 2-{[1-Cyclohexyl-2-(2-phenyl-quinoxalin-6-yl)-1H-benzoimidazole-5-carbonyl]-amino}-3-methyl-butyric acid]	81	97.8	–	–
NC(=O)C[C@H](NC(=O)c1ccc2c(c1)nc(-c1ccc3nc(-c4ccccc4)cnc3c1)n2C1CCCCC1)C(=O)O [Compound 518, 2-{[1-Cyclohexyl-2-(2-phenyl-quinoxalin-6-yl)-1H-benzoimidazole-5-carbonyl]-amino}-succinamic acid]	76	97.8	–	–
O=C(N[C@@H](Cc1ccc(O)cc1)C(=O)O)c1ccc2c(c1)nc(-c1ccc3nc(-c4ccccc4)cnc3c1)n2C1CCCCC1 [Compound 519, 2-{[1-Cyclohexyl-2-(2-phenyl-quinoxalin-6-yl)-1H-benzoimidazole-5-carbonyl]-amino}-3-(4-hydroxy-phenyl)-propionic acid]	96.9	99.1	–	–
O=C(O)[C@@H]1Cc2ccccc2CN1C(=O)c1ccc2c(c1)nc(-c1ccc3nc(-c4ccccc4)cnc3c1)n2C1CCCCC1 [Compound 520, 2-[1-Cyclohexyl-2-(2-phenyl-quinoxalin-6-yl)-1H-benzoimidazole-5-carbonyl]-1,2,3,4-tetrahydro-isoquinoline-3-carboxylic acid]	94.8	98.9	–	–
CN1CCN(C(=O)c2ccc3c(c2)nc(-c2cc4ccc(-c5ccccc5-c5ccc(Cl)cc5)nc4cc2F)n3C2CCCCC2)CC1 [Compound 521, {2-[2-(4′-Chloro-biphen-2-yl)-7-fluoro-quinolin-6-yl]-1-cyclohexyl-1H-benzoimidazol-5-yl}-(4-methyl-piperazin-1-yl)-methanone]	84.8	91.4	–	–
CN1CCN(C(=O)c2ccc3c(c2)nc(-c2cc4ccc(-c5ccccc5-c5ccccc5)nc4cc2F)n3C2CCCCC2)CC1 [Compound 522, [2-(2-Biphen-2-yl-7-fluoro-quinolin-6-yl)-1-cyclohexyl-1H-benzoimidazol-5-yl]-(4-methyl-piperazin-1-yl)-methanone]	76.7	74.2	–	–
N=C(N)NCCC[C@H](NC(=O)c1ccc2c(c1)nc(-c1ccc3nc(-c4ccccc4)cnc3c1)n2C1CCCCC1)C(=O)O [Compound 523, 2-{[1-Cyclohexyl-2-(2-phenyl-quinoxalin-6-yl)-1H-benzoimidazole-5-carbonyl]-amino}-5-guanidino-pentanoic acid]	87.1	95	–	–
O=C(NCCS(=O)(=O)O)c1ccc2c(c1)nc(-c1ccc3nc(-c4ccccc4)cnc3c1)n2C1CCCCC1 [Compound 524]	–	–	74.09	93.58
COc1ccc(-c2ccc(Cl)cc2)c(-c2ccc3cc(-c4nc5cc(-c6nnn[nH]6)ccc5n4C4CCCCC4)ccc3n2)c1 [Compound 525, 2-(4′-chloro-4-methoxy-biphen-2-yl)-6-[1-cyclohexyl-5-(1H-tetrazol-5-yl)-1H-benzoimidazol-2-yl]-quinoline]	101	101	–	–
O=C(O)c1ccc2cc(NC(=O)c3ccc4c(c3)nc(-c3ccc5nc(-c6ccccc6)cnc5c3)n4C3CCCCC3)ccc2c1 [Compound 526, 6-{[1-Cyclohexyl-2-(2-phenyl-quinoxalin-6-yl)-1H-benzoimidazole-5-carbonyl]-amino}-naphthalene-2-carboxylic acid]	96.8	99	–	–
COc1ccc(-c2ccc(Cl)cc2)c(-c2ccc3cc(-c4nc5cc(C(=O)O)ccc5n4C(C)C)ccc3n2)c1 [Compound 527, 2-[2-(4′-chloro-4-methoxy-biphen-2-yl)-quinolin-6-yl]-1-isopropyl-1H-benzoimidazole-5-carboxylic acid]	99.4	101	–	–
COc1ccc(-c2ccc(Cl)cc2)c(-c2ccc3cc(-c4nc5cc(C(=O)O)ccc5n4C4CC4)ccc3n2)c1 [Compound 528, 2-[2-(4′-chloro-4-methoxy-biphen-2-yl)-quinolin-6-yl]-1-cyclopropyl-1H-benzoimidazole-5-carboxylic acid]	100	101	–	–
COc1ccc(-c2ccc(Cl)cc2)c(-c2ccc3cc(-c4nc5cc(C(=O)O)ccc5n4C4CCCC4)ccc3n2)c1 [Compound 529, 2-[2-(4′-chloro-4-methoxy-biphen-2-yl)-quinolin-6-yl]-1-cyclopentyl-1H-benzoimidazole-5-carboxylic acid]	99.2	99.8	–	–
COc1ccc(-c2ccc(Cl)cc2)c(-c2ccc3cc(-c4nc5cc(C(=O)O)ccc5n4CC(C)C)ccc3n2)c1 [Compound 530, 2-[2-(4′-Chloro-4-methoxy-biphen-2-yl)-quinolin-6-yl]-1-isobutyl-1H-benzoimidazole-5-carboxylic acid]	98.2	98.2	–	–
COc1ccc(-c2ccc(Cl)cc2)c(-c2ccc3cc(-c4nc5cc(C(=O)O)ccc5n4CC4CC4)ccc3n2)c1 [Compound 531, 2-[2-(4′-chloro-4-methoxy-biphen-2-yl)-quinolin-6-yl]-1-cyclopropylmethyl-1H-benzoimidazole-5-carboxylic acid]	100	99.3	–	–
COc1ccc(-c2ccc(Cl)cc2)c(-c2ccc3cc(-c4nc5cc(C(=O)O)ccc5n4CCC(C)C)ccc3n2)c1 [Compound 532, 2-[2-(4′-chloro-4-methoxy-biphen-2-yl)-quinolin-6-yl]-1-(3-methyl-butyl)-1H-benzoimidazole-5-carboxylic acid]	99.6	98.8	–	–
COc1ccc(-c2ccc(Cl)cc2)c(-c2ccc3cc(-c4nc5cc(C(=O)O)ccc5n4CCN(C)C)ccc3n2)c1 [Compound 533, 2-[2-(4′-chloro-4-methoxy-biphen-2-yl)-quinolin-6-yl]-1-(2-dimethylamino-ethyl)-1H-benzoimidazole-5-carboxylic acid]	56.8	89.8	–	–
CCn1c(-c2ccc3nc(-c4cc(OC)ccc4-c4ccc(Cl)cc4)ccc3c2)nc2cc(C(=O)O)ccc21 [Compound 534, 2-[2-(4′-chloro-4-methoxy-biphen-2-yl)-quinolin-6-yl]-1-ethyl-1H-benzoimidazole-5-carboxylic acid]	90.1	101	–	–
O=C(O)c1cnc2c(c1)nc(-c1ccc3nc(-c4cc(O)ccc4-c4ccc(Cl)cc4)ccc3c1)n2C1CCCCC1 [Compound 535, 2-[2-(4′-chloro-4-hydroxy-biphen-2-yl)-quinolin-6-yl]-3-cyclohexyl-3H-imidazo[4,5-b]pyridine-6-carboxylic acid]	101	100	–	–
COc1ccc(-c2ccc(Cl)cc2)c(-c2ccc3cc(-c4[nH]c5cc(C(=O)O)ccc5c4C4CCCCC4)ccc3n2)c1 [Compound 536, 2-[2-(4′-Chloro-4-methoxy-biphen-2-yl)-quinolin-6-yl]-3-cyclohexyl-1H-indole-6-carboxylic acid]	97.5	98.9	–	–
COc1ccc(-c2ccc(Cl)cc2)c(-c2ccc3cc(-c4nc5cc(C(=O)O)cnc5n4C4CCCCC4)ccc3n2)c1 [Compound 537, 2-[2-(4′-chloro-4-methoxy-biphen-2-yl)-quinolin-6-yl]-3-cyclohexyl-3H-imidazo[4,5-b]pyridine-6-carboxylic acid]	100	99.8	–	–
CCOC(=O)c1cnc2c(c1)nc(-c1ccc3nc(-c4cc(O)ccc4-c4ccc(Cl)cc4)ccc3c1)n2C1CCCCC1 [Compound 538, 2-[2-(4′-chloro-4-hydroxy-biphen-2-yl)-quinolin-6-yl]-3-cyclohexyl-3H-imidazo[4,5-b]pyridine-6-carboxylic acid Ethyl Ester]	56.6	72.8	–	–
O=C(O)c1cnc2c(c1)nc(-c1ccc3nc(-c4cc(C(=O)N5CCCC5)ccc4-c4ccc(Cl)cc4)ccc3c1)n2C1CCCCC1 [Compound 539, 2-{2-[4′-chloro-4-(pyrrolidine-1-carbonyl)-biphen-2-yl]-quinolin-6-yl}-3-cyclohexyl-3H-imidazo[4,5-b]pyridine-6-carboxylic acid]	104	102	–	–
